Laboratory results reported in the supplement of paper PMC13380429.
Structures can show the parent of a compound that is named as a salt.

Experiments:
Conditions in all cases: 72 h
[1] = test system: HepG2; assay: relative viability EC50 (midpoint between 100% and the lowest measured viability); higher = less toxic
[2] = test system: Vero E6; assay: as above
[3] = test system: Calu-3; assay: as above
[4] = test system: Caco-2; assay: as above
[5] = test system: U2OS; assay: as above
[6] = test system: HepG2; assay: drug sensitivity score (DSS) for viability; higher = more toxic; extreme values may be limits of the assay
[7] = test system: Vero E6; assay: as above
[8] = test system: Calu-3; assay: as above
[9] = test system: Caco-2; assay: as above
[10] = test system: U2OS; assay: as above
[11] = test system: HepG2; assay: cell viability relative to DMSO; higher = less toxic
[12] = test system: Vero E6; assay: as above
[13] = test system: Calu-3; assay: as above
[14] = test system: Caco-2; assay: as above
[15] = test system: U2OS; assay: as above

## O=CN1CCC(C(=O)NCCN2CCC(=C3c4ccccc4C=Cc4ccccc43)CC2)CC1 [AT-1015]
[1]
  relative viability EC50: > 10 µM
[2]
  relative viability EC50: > 10 µM
[3]
  relative viability EC50: > 10 µM
[4]
  relative viability EC50: > 10 µM
[5]
  relative viability EC50: > 10 µM
[6]
  drug sensitivity score: 0.7
[7]
  drug sensitivity score: 0
[8]
  drug sensitivity score: 0
[9]
  drug sensitivity score: 0
[10]
  drug sensitivity score: 0
[11]; 1 nM
  cell viability: 104%
[11]; 10 nM
  cell viability: 99.9%
[11]; 100 nM
  cell viability: 98.2%
[11]; 1000 nM
  cell viability: 102%
[11]; 10000 nM
  cell viability: 77%
[12]; 1 nM
  cell viability: 104%
[12]; 10 nM
  cell viability: 108%
[12]; 100 nM
  cell viability: 110%
[12]; 1000 nM
  cell viability: 103%
[12]; 10000 nM
  cell viability: 99.8%
[13]; 1 nM
  cell viability: 93.2%
[13]; 10 nM
  cell viability: 103%
[13]; 100 nM
  cell viability: 89.2%
[13]; 1000 nM
  cell viability: 97.7%
[13]; 10000 nM
  cell viability: 88.7%
[14]; 1 nM
  cell viability: 101%
[14]; 10 nM
  cell viability: 108%
[14]; 100 nM
  cell viability: 104%
[14]; 1000 nM
  cell viability: 105%
[14]; 10000 nM
  cell viability: 93.8%
[15]; 1 nM
  cell viability: 96.3%
[15]; 10 nM
  cell viability: 97.4%
[15]; 100 nM
  cell viability: 94.8%
[15]; 1000 nM
  cell viability: 96.8%
[15]; 10000 nM
  cell viability: 91.4%

## CNC(=O)c1cccc(-c2ccc3c(N4CCOC[C@@H]4C)nc(N4CCOC[C@@H]4C)nc3n2)c1 [AZD2014]
[1]
  relative viability EC50: 0.348 µM
[2]
  relative viability EC50: 0.762 µM
[3]
  relative viability EC50: 0.154 µM
[4]
  relative viability EC50: 0.235 µM
[5]
  relative viability EC50: 1.2 µM
[6]
  drug sensitivity score: 13
[7]
  drug sensitivity score: 7.5
[8]
  drug sensitivity score: 16.1
[9]
  drug sensitivity score: 13.3
[10]
  drug sensitivity score: 8.5
[11]; 1 nM
  cell viability: 94%
[11]; 10 nM
  cell viability: 95.4%
[11]; 100 nM
  cell viability: 86.4%
[11]; 1000 nM
  cell viability: 39%
[11]; 10000 nM
  cell viability: 22%
[12]; 1 nM
  cell viability: 94.7%
[12]; 10 nM
  cell viability: 99.4%
[12]; 100 nM
  cell viability: 85.4%
[12]; 1000 nM
  cell viability: 70.1%
[12]; 10000 nM
  cell viability: 37.2%
[13]; 1 nM
  cell viability: 89.4%
[13]; 10 nM
  cell viability: 87.5%
[13]; 100 nM
  cell viability: 74.3%
[13]; 1000 nM
  cell viability: 27.7%
[13]; 10000 nM
  cell viability: 22.9%
[14]; 1 nM
  cell viability: 106%
[14]; 10 nM
  cell viability: 98.5%
[14]; 100 nM
  cell viability: 83.8%
[14]; 1000 nM
  cell viability: 38.8%
[14]; 10000 nM
  cell viability: 30.6%
[15]; 1 nM
  cell viability: 95.8%
[15]; 10 nM
  cell viability: 94.9%
[15]; 100 nM
  cell viability: 96.7%
[15]; 1000 nM
  cell viability: 66.7%
[15]; 10000 nM
  cell viability: 19.4%

## COc1cc(CCc2cc(NC(=O)c3ccc(N4CC(C)NC(C)C4)cc3)n[nH]2)cc(OC)c1 (stereo not given) [AZD4547]
[1]
  relative viability EC50: 1.99 µM
[2]
  relative viability EC50: > 10 µM
[3]
  relative viability EC50: > 10 µM
[4]
  relative viability EC50: > 10 µM
[5]
  relative viability EC50: 1.61 µM
[6]
  drug sensitivity score: 5
[7]
  drug sensitivity score: 0
[8]
  drug sensitivity score: 0
[9]
  drug sensitivity score: 0.2
[10]
  drug sensitivity score: 4.5
[11]; 1 nM
  cell viability: 95.7%
[11]; 10 nM
  cell viability: 105%
[11]; 100 nM
  cell viability: 87.3%
[11]; 1000 nM
  cell viability: 90.7%
[11]; 10000 nM
  cell viability: 37%
[12]; 1 nM
  cell viability: 95.7%
[12]; 10 nM
  cell viability: 98.1%
[12]; 100 nM
  cell viability: 92.5%
[12]; 1000 nM
  cell viability: 96.2%
[12]; 10000 nM
  cell viability: 100%
[13]; 1 nM
  cell viability: 101%
[13]; 10 nM
  cell viability: 107%
[13]; 100 nM
  cell viability: 93.8%
[13]; 1000 nM
  cell viability: 99.4%
[13]; 10000 nM
  cell viability: 99.8%
[14]; 1 nM
  cell viability: 87.5%
[14]; 10 nM
  cell viability: 93.8%
[14]; 100 nM
  cell viability: 99.3%
[14]; 1000 nM
  cell viability: 104%
[14]; 10000 nM
  cell viability: 80.4%
[15]; 1 nM
  cell viability: 101%
[15]; 10 nM
  cell viability: 94.8%
[15]; 100 nM
  cell viability: 95.2%
[15]; 1000 nM
  cell viability: 88.2%
[15]; 10000 nM
  cell viability: 49.5%

## CC(C)C[C@@H]1NC(=O)[C@@H](C(C)C)NC(=O)[C@@H]2CCCN2C(=O)[C@@H](CC(=O)O)NC(=O)[C@@H](Cc2c[nH]c3ccccc23)NC1=O [BQ-123]
[1]
  relative viability EC50: > 10 µM
[2]
  relative viability EC50: > 10 µM
[3]
  relative viability EC50: > 10 µM
[4]
  relative viability EC50: > 10 µM
[5]
  relative viability EC50: > 10 µM
[6]
  drug sensitivity score: 0
[7]
  drug sensitivity score: 0
[8]
  drug sensitivity score: 0
[9]
  drug sensitivity score: 0
[10]
  drug sensitivity score: 0
[11]; 1 nM
  cell viability: 95.4%
[11]; 10 nM
  cell viability: 100%
[11]; 100 nM
  cell viability: 98%
[11]; 1000 nM
  cell viability: 110%
[11]; 10000 nM
  cell viability: 108%
[12]; 1 nM
  cell viability: 96.2%
[12]; 10 nM
  cell viability: 102%
[12]; 100 nM
  cell viability: 92.2%
[12]; 1000 nM
  cell viability: 99.7%
[12]; 10000 nM
  cell viability: 104%
[13]; 1 nM
  cell viability: 93.7%
[13]; 10 nM
  cell viability: 94.5%
[13]; 100 nM
  cell viability: 95.8%
[13]; 1000 nM
  cell viability: 90.6%
[13]; 10000 nM
  cell viability: 100%
[14]; 1 nM
  cell viability: 96.4%
[14]; 10 nM
  cell viability: 93.2%
[14]; 100 nM
  cell viability: 103%
[14]; 1000 nM
  cell viability: 91.4%
[14]; 10000 nM
  cell viability: 109%
[15]; 1 nM
  cell viability: 99.7%
[15]; 10 nM
  cell viability: 96%
[15]; 100 nM
  cell viability: 101%
[15]; 1000 nM
  cell viability: 95%
[15]; 10000 nM
  cell viability: 101%

## N[C@H](Cc1ccccc1)C(=O)O [D-phenylalanine]
[1]
  relative viability EC50: > 10 µM
[2]
  relative viability EC50: > 10 µM
[3]
  relative viability EC50: > 10 µM
[4]
  relative viability EC50: > 10 µM
[5]
  relative viability EC50: > 10 µM
[6]
  drug sensitivity score: 0
[7]
  drug sensitivity score: 0
[8]
  drug sensitivity score: 0
[9]
  drug sensitivity score: 0
[10]
  drug sensitivity score: 0
[11]; 1 nM
  cell viability: 99.7%
[11]; 10 nM
  cell viability: 109%
[11]; 100 nM
  cell viability: 90.4%
[11]; 1000 nM
  cell viability: 105%
[11]; 10000 nM
  cell viability: 100%
[12]; 1 nM
  cell viability: 108%
[12]; 10 nM
  cell viability: 100%
[12]; 100 nM
  cell viability: 104%
[12]; 1000 nM
  cell viability: 101%
[12]; 10000 nM
  cell viability: 96.1%
[13]; 1 nM
  cell viability: 98.3%
[13]; 10 nM
  cell viability: 95.2%
[13]; 100 nM
  cell viability: 111%
[13]; 1000 nM
  cell viability: 102%
[13]; 10000 nM
  cell viability: 105%
[14]; 1 nM
  cell viability: 94.6%
[14]; 10 nM
  cell viability: 101%
[14]; 100 nM
  cell viability: 90.8%
[14]; 1000 nM
  cell viability: 95.8%
[14]; 10000 nM
  cell viability: 93.8%
[15]; 1 nM
  cell viability: 95.6%
[15]; 10 nM
  cell viability: 101%
[15]; 100 nM
  cell viability: 96.5%
[15]; 1000 nM
  cell viability: 95.2%
[15]; 10000 nM
  cell viability: 99.8%

## Nc1ncnc2c1ncn2[C@H]1O[C@@H](C(=O)N2CCN(CC(=O)Nc3cccc4c3CNC4=O)CC2)[C@H](O)[C@@H]1O [EB-47]
[1]
  relative viability EC50: > 10 µM
[2]
  relative viability EC50: > 10 µM
[3]
  relative viability EC50: > 10 µM
[4]
  relative viability EC50: > 10 µM
[5]
  relative viability EC50: > 10 µM
[6]
  drug sensitivity score: 0
[7]
  drug sensitivity score: 0
[8]
  drug sensitivity score: 0.1
[9]
  drug sensitivity score: 0
[10]
  drug sensitivity score: 0
[11]; 1 nM
  cell viability: 102%
[11]; 10 nM
  cell viability: 96.3%
[11]; 100 nM
  cell viability: 103%
[11]; 1000 nM
  cell viability: 102%
[11]; 10000 nM
  cell viability: 93.9%
[12]; 1 nM
  cell viability: 102%
[12]; 10 nM
  cell viability: 98.6%
[12]; 100 nM
  cell viability: 94.7%
[12]; 1000 nM
  cell viability: 92.4%
[12]; 10000 nM
  cell viability: 97.6%
[13]; 1 nM
  cell viability: 92%
[13]; 10 nM
  cell viability: 102%
[13]; 100 nM
  cell viability: 91.3%
[13]; 1000 nM
  cell viability: 104%
[13]; 10000 nM
  cell viability: 85.7%
[14]; 1 nM
  cell viability: 97.8%
[14]; 10 nM
  cell viability: 103%
[14]; 100 nM
  cell viability: 104%
[14]; 1000 nM
  cell viability: 94.8%
[14]; 10000 nM
  cell viability: 92.6%
[15]; 1 nM
  cell viability: 99.4%
[15]; 10 nM
  cell viability: 107%
[15]; 100 nM
  cell viability: 102%
[15]; 1000 nM
  cell viability: 100%
[15]; 10000 nM
  cell viability: 96.7%

## CCSC(=N)N [EIT-hydrobromide]
[1]
  relative viability EC50: > 10 µM
[2]
  relative viability EC50: > 10 µM
[3]
  relative viability EC50: > 10 µM
[4]
  relative viability EC50: > 10 µM
[5]
  relative viability EC50: > 10 µM
[6]
  drug sensitivity score: 0
[7]
  drug sensitivity score: 0
[8]
  drug sensitivity score: 0
[9]
  drug sensitivity score: 0
[10]
  drug sensitivity score: 0
[11]; 1 nM
  cell viability: 96.9%
[11]; 10 nM
  cell viability: 90%
[11]; 100 nM
  cell viability: 94.3%
[11]; 1000 nM
  cell viability: 102%
[11]; 10000 nM
  cell viability: 103%
[12]; 1 nM
  cell viability: 94.2%
[12]; 10 nM
  cell viability: 99.4%
[12]; 100 nM
  cell viability: 96.9%
[12]; 1000 nM
  cell viability: 95.8%
[12]; 10000 nM
  cell viability: 105%
[13]; 1 nM
  cell viability: 108%
[13]; 10 nM
  cell viability: 96.8%
[13]; 100 nM
  cell viability: 96.9%
[13]; 1000 nM
  cell viability: 104%
[13]; 10000 nM
  cell viability: 103%
[14]; 1 nM
  cell viability: 97.7%
[14]; 10 nM
  cell viability: 98.1%
[14]; 100 nM
  cell viability: 91.1%
[14]; 1000 nM
  cell viability: 102%
[14]; 10000 nM
  cell viability: 107%
[15]; 1 nM
  cell viability: 94.2%
[15]; 10 nM
  cell viability: 101%
[15]; 100 nM
  cell viability: 97.5%
[15]; 1000 nM
  cell viability: 100%
[15]; 10000 nM
  cell viability: 103%
